Measured values published in ChEMBL document CHEMBL1145498, “A systematic interaction map of validated kinase inhibitors with Ser/Thr kinases” (Proc Natl Acad Sci U S A, 2007).
Values belong to the compound of their own block, whether it stands above or below them.

Columns and labels:
[1] = Inhibition of Cdc25 phosphatase activity
[2] = system: P19; experiment: Induction of differentiation in mouse P19 cells at 1000 nM; format: functional
[3] = cells; details: Homo sapiens, NCEB1, 72 h
[4] = system: A549; experiment: Antiproliferative activity against human A549 cells; format: functional, cell-based
[5] = target: Dual specificity mitogen-activated protein kinase kinase 3 (Homo sapiens, UniProt P46734); experiment: Inhibition of MKK3
[6] = target: T1, Serine/threonine-protein kinase Chk1 (Homo sapiens, UniProt O14757); experiment: Inhibition of Chk1 mediated phosphorylation of cdc25C
T1 sequence (O14757 whole entry): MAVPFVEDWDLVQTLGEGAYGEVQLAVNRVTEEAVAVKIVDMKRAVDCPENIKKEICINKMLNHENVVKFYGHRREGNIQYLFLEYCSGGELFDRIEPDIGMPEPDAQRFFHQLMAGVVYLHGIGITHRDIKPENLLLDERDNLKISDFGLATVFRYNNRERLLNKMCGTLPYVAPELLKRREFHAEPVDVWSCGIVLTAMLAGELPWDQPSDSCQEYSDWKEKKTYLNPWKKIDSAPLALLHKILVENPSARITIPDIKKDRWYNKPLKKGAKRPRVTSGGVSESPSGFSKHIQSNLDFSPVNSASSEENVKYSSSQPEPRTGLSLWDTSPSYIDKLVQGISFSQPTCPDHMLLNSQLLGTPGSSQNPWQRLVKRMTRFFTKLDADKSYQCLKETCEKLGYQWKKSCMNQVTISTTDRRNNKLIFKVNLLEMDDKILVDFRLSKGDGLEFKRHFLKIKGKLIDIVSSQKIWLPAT

[7] = system: RBL-2H3; experiment: Inhibition of FcepsilonRI-mediated 5-HT release in rat RBL2H3 cells; format: functional, cell-based
[8] = species on record: Rattus norvegicus; experiment: Antiangiogenic activity in rat aortic ring model at 10000 nM; format: functional; details: Aorta
[9] = system: NT2; experiment: Cell cycle arrest in human NT2 cells assessed as accumulation at G2 phase; format: functional, cell-based
[10] = target: Casein kinase II subunit alpha (Homo sapiens, UniProt P68400); experiment: Inhibition of CK2
[11] = target: Phospholipase A2 (Homo sapiens, UniProt P04054); experiment: Inhibition of phospholipase A2
[12] = target: Epidermal growth factor receptor (Homo sapiens, UniProt P00533, L861Q); experiment: Inhibition of EGFR L861Q mutant; format: protein assay
[13] = system: MOLM-13; experiment: Induction of apoptosis in human MOLM13 cells; format: functional, cell-based
[14] = Inhibition of serum-induced proliferation in human NHLF cells; format: functional, cell-based
[15] = target: Dual specificity protein kinase CLK4 (Mus musculus, UniProt O35493); experiment: Inhibition of mouse Clk4
[16] = Inhibition of diacylglycerol kinase in intact platelets
[17] = target: Nitric oxide synthase, inducible (Homo sapiens, UniProt P35228); experiment: Inhibition of nitric oxide synthase in […]; format: cell-based
[18] = target: Tyrosine-protein kinase Fyn (Homo sapiens, UniProt P06241); experiment: Inhibition of Fyn
[19] = system: PBMC; experiment: Inhibition of LPS-stimulated TNFalpha release in human PBMC; format: functional, cell-based
[20] = Inhibition of phosphorylase kinase
[21] = system: T-cell; experiment: Inhibition of tyrosine phosphorylation in human T cells; format: functional, cell-based
[22] = Inhibition of adhesion kinase in human T cells; format: cell-based; details: t-cell
[23] = target: Dual specificity mitogen-activated protein kinase kinase 2 (Homo sapiens, UniProt P36507)
[24] = target: Tyrosine-protein kinase ABL1 (Homo sapiens, UniProt P00519); experiment: Inhibition of Abl
[25] = Inhibition of Plx1
[26] = target: DNA topoisomerase 2-alpha (Homo sapiens, UniProt P11388); experiment: Inhibition of topoisomerase 2
DNA topoisomerase 2-alpha, sequence (P11388 whole entry): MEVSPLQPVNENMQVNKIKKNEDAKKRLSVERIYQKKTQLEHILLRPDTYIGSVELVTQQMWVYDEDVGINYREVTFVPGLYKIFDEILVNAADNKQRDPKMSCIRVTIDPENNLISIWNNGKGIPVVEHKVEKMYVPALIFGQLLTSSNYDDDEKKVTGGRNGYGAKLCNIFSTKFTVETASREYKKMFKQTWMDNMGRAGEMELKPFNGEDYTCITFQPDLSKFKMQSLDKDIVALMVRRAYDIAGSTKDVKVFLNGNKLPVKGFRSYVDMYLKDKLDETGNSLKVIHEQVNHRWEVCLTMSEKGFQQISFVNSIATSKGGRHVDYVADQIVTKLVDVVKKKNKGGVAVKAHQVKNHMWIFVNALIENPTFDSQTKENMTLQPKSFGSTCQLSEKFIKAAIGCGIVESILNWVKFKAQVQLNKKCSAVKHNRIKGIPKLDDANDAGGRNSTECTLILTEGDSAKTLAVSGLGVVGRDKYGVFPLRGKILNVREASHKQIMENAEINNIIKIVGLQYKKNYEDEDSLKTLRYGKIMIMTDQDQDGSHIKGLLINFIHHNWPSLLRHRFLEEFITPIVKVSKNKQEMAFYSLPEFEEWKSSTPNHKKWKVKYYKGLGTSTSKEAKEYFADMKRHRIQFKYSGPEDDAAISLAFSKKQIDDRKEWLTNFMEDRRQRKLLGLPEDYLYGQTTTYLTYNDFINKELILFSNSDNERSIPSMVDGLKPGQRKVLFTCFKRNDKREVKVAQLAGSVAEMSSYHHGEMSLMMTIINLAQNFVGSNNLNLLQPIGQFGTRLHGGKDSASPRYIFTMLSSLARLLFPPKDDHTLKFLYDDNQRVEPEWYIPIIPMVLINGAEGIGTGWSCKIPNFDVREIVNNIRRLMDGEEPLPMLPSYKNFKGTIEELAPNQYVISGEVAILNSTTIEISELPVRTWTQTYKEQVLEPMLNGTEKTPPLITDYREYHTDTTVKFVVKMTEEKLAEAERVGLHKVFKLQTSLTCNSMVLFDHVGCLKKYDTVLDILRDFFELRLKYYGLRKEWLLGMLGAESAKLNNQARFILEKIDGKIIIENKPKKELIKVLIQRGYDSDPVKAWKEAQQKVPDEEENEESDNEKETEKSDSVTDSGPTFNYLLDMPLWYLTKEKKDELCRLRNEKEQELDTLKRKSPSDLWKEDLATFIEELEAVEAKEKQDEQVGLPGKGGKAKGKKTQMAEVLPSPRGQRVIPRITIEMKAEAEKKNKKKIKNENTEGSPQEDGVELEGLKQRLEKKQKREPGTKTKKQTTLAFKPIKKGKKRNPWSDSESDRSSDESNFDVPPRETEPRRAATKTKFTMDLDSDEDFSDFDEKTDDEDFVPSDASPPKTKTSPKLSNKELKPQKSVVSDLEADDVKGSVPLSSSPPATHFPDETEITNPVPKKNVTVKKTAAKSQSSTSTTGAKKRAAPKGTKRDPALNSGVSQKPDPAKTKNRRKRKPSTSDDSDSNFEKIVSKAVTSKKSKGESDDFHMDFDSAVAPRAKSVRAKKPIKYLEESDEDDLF

Nitric oxide synthase, inducible, sequence (P35228 whole entry): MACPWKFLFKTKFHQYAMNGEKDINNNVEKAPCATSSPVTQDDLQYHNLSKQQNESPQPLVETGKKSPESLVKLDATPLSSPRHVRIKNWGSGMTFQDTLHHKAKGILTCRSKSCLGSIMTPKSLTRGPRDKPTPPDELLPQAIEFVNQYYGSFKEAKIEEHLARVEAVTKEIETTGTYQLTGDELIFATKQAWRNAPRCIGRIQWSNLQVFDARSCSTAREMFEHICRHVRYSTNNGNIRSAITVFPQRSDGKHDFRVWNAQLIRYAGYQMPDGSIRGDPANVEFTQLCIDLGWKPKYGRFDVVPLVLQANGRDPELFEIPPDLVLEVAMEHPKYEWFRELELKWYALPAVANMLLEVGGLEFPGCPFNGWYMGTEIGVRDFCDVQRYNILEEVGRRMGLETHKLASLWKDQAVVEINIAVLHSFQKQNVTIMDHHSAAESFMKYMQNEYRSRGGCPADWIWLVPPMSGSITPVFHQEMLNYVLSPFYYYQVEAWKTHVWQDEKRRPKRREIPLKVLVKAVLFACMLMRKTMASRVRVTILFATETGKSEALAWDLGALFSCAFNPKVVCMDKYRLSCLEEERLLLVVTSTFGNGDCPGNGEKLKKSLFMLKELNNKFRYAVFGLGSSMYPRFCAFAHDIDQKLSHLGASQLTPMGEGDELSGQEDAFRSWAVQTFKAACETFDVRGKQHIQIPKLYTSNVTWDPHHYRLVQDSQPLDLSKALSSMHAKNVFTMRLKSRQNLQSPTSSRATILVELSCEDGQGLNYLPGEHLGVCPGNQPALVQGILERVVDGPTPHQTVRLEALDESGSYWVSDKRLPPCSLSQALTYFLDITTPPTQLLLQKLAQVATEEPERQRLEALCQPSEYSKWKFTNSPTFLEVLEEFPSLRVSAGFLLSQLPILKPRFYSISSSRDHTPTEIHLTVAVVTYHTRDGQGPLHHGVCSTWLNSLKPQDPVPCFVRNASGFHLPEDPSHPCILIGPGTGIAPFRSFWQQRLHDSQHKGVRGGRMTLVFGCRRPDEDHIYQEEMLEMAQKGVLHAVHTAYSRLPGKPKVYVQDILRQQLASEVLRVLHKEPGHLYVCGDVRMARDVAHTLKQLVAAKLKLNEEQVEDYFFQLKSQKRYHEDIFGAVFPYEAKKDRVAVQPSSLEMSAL
Phospholipase A2, sequence (P04054 whole entry): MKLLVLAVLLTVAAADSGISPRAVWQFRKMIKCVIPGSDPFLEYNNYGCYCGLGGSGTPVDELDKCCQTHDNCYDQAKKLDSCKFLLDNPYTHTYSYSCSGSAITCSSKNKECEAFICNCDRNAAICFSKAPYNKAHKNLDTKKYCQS
Epidermal growth factor receptor, sequence (P00533 25-1210 L861Q limits assumed): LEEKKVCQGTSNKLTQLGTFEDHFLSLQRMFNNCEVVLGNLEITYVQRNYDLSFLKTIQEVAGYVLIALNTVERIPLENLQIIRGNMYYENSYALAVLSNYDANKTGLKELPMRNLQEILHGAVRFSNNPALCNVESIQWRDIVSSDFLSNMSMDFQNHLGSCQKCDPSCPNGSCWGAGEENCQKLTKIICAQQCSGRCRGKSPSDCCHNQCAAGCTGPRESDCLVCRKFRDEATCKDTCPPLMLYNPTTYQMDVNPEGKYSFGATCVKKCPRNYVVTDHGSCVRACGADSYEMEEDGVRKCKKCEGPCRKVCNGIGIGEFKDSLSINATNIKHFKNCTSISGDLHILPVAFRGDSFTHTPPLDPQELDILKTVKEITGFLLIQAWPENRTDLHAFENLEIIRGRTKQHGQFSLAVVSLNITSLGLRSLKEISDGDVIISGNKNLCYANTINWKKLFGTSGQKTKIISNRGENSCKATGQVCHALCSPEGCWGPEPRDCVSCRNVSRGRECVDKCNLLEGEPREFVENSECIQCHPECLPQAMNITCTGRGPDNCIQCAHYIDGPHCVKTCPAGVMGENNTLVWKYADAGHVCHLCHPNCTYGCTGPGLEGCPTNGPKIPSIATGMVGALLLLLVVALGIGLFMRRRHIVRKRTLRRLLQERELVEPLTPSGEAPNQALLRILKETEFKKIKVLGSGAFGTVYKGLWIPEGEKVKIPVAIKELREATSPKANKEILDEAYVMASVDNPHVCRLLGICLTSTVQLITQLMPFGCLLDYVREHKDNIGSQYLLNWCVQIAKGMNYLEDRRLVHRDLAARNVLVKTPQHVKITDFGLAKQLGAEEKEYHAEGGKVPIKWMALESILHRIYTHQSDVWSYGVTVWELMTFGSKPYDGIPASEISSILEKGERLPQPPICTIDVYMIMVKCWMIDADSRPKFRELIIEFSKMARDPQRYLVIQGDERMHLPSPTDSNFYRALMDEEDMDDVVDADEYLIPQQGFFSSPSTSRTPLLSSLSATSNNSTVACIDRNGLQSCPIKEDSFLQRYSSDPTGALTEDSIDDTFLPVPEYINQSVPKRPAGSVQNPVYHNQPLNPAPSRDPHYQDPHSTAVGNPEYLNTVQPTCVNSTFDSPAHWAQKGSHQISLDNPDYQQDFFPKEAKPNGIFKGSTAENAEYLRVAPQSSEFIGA
Casein kinase II subunit alpha, sequence (P68400 whole entry): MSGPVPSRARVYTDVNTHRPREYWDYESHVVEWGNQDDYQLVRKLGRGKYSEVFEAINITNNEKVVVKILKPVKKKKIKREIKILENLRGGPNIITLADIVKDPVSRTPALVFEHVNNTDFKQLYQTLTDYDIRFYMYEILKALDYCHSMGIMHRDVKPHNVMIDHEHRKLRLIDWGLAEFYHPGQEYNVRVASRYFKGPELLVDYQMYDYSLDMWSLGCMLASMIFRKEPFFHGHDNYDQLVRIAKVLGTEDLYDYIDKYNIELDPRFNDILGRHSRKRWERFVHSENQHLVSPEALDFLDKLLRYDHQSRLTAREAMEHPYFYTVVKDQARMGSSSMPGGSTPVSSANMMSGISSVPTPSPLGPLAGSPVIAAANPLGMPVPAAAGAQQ
Dual specificity protein kinase CLK4, sequence (O35493 whole entry): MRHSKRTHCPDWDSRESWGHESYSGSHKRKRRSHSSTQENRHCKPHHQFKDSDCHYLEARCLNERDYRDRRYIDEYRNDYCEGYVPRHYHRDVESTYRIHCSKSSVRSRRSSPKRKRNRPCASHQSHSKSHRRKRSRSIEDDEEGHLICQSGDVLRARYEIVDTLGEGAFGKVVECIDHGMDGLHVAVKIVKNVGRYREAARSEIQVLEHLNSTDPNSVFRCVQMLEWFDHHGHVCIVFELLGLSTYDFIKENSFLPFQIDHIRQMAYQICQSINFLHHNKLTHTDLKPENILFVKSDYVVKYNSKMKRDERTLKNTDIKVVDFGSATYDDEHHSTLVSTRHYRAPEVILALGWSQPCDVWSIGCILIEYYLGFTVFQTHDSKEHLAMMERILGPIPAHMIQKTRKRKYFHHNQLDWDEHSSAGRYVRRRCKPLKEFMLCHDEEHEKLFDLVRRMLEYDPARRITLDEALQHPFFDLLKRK

IC50 [1]: > 10 µM
Compound: Nc1n[nH]c2nc3ccccc3nc12 [QUINOXALINE1]

Compound: Nc1cccc(-c2cc3c(Oc4cccc(O)c4)ncnc3[nH]2)c1
Activity [2]: 30%

Compound: CC[C@H](CO)Nc1nc(NCc2ccccc2)c2ncn(C(C)C)c2n1 [SELICICLIB]
IC50 [3]: 50 µM

Compound: CCOc1ccc(/C=C2/SC(=O)N(CCN)C2=O)cc1 [HIAZOLIDINEDIONE1]
IC50 [4]: ≤ 25 µM

Compound: C=CNC#N
IC50 [5]: > 1 µM

Compound: O=C1NC(=O)c2c1c1c3ccccc3n3c1c1c2c2ccccc2n1C1CCC3O1
IC50 [6]: 0.015 µM

Compound: NCCNc1ncc(C(N)=O)c(Nc2cccc(C(F)(F)F)c2)n1
IC50 [7]: 0.46 µM

Compound: O=C1Nc2ccccc2/C1=C/c1cnc[nH]1
inhibition at 10 µM [8]: 30%

Compound: CCCCc1c(-c2ccc(O)cc2)[nH]c2nccnc12 [ALOISINE A]
IC50 [9]: 10.5 µM
IC50 [10]: ≥ 100 µM

Compound: O=c1c(O)c(-c2ccc(O)c(O)c2)oc2cc(O)cc(O)c12 [QUERCETIN]
IC50 [11]: 2 µM

IC50 [12]: 0.004 µM
Compound: O=C(Nc1cccc(Nc2cc(Nc3cccc(C(F)(F)F)c3)ncn2)c1)C1CC1

Compound: CN(C)C[C@@H]1CCn2cc(c3ccccc32)C2=C(C(=O)NC2=O)c2cn(c3ccccc23)CCO1 [RUBOXISTAURIN]
IC50 [13]: 0.7 µM

Compound: CN1CCc2[nH]c(=S)c(C#N)c(-c3cccs3)c2C1
IC50 [14]: < 8 µM

IC50 [15]: 0.015 µM
Compound: CCN1/C(=C/C(C)=O)Sc2ccc(OC)cc21

IC50 [16]: 0.12 µM
Compound: O=c1c2ccccc2[nH]c(=S)n1CCN1CCC(=C(c2ccc(F)cc2)c2ccc(F)cc2)CC1 [DIACYLGLYCEROL KINASE INHIBITOR II]

IC50 [17]: 6 µM
Compound: COc1cc(/C=C/C(=O)CC(=O)/C=C/c2ccc(O)c(OC)c2)ccc1O [CURCUMIN]

IC50 [18]: 0.17 µM
Compound: CN(C)S(=O)(=O)c1ccc2c(c1)/C(=C/c1cc3c([nH]1)CCCC3)C(=O)N2

Compound: CSc1nc(-c2ccc(F)cc2)c(-c2ccnc(NC(C)c3ccccc3)c2)[nH]1 (racemic)
IC50 [19]: 0.16 µM

IC50 [20]: 1.3 µM
Compound: Cl.Cn1cc(C2=C(c3ccc4cc5n(c4c3)CCC(CN)C5)C(=O)NC2=O)c2ccccc21 (stereo unspecified)

Compound: CC(C)(C)n1nc(-c2ccc(Cl)cc2)c2c(N)ncnc21
IC50 [21]: 0.6 µM
IC50 [22]: 0.6 µM

IC50 [23]: 0.22 µM
Compound: N#C/C(=C(/N)Sc1ccc(N)cc1)c1ccccc1C(F)(F)F

IC50 [24]: ≥ 10 µM
Compound: c1ccc(-c2n[nH]c3c2oc2ccccc23)cc1

Compound: C/C(O)=C(\C#N)C(=O)Nc1cc(Br)ccc1Br
IC50 [25]: 10 µM

Compound: Cc1c2ccncc2c(C)c2c1[nH]c1ccccc12 [ELLIPTECINE]
IC50 [26]: 3.3 µM
